In the Kinase Knowledgebase extract (Sharma et al. 2016):

Biological target: CDK2 (human) (UniProt P24941)
Assay: Enzyme Assay

SMILES	IC50
CC(=O)NCCCNc1ncccc1-c1ccnc(Nc2cccc(C#N)c2)n1	< 5 µM
NCCNc1ncccc1-c1ccnc(Nc2cccc(Cl)c2)n1	< 5 µM
CCCCNS(=O)(=O)c1cccc(Nc2nccc(-c3cccnc3OC)n2)c1	< 5 µM
CC(=O)NCCCNc1ncccc1-c1ccnc(Nc2cccc(S(N)(=O)=O)c2)n1	< 5 µM
CNS(=O)(=O)c1cccc(Nc2nccc(-c3cccnc3OC)n2)c1	< 5 µM
CCNS(=O)(=O)c1cccc(Nc2nccc(-c3cccnc3OC)n2)c1	< 5 µM
COc1ncccc1-c1ccnc(Nc2cccc(-c3nncn3C)c2)n1	< 5 µM
Nc1cnccc1-c1ccnc(Nc2cccc(Cl)c2)n1	< 5 µM
N#Cc1cccc(Nc2nccc(-c3cccnc3NCCCN)n2)c1	< 5 µM
COc1ncccc1-c1ccnc(Nc2cccc(C3CCNCC3)c2)n1	< 5 µM
Cc1cnccc1-c1ccnc(Nc2cccc(Cl)c2)n1	< 5 µM
CCOC(=O)c1cccc(Nc2nccc(-c3cccnc3OC)n2)c1	< 5 µM
CC(=O)NCCCCNc1ncccc1-c1ccnc(Nc2cccc(Cl)c2)n1	< 5 µM
Cc1nccn1CCCNc1ncccc1-c1ccnc(Nc2cccc(Cl)c2)n1	< 5 µM
CN(C)CCCNc1ncccc1-c1ccnc(Nc2cccc(Cl)c2)n1	< 5 µM
COc1ncccc1-c1ccnc(Nc2cccc(S(=O)(=O)N3CCCCC3)c2)n1	< 5 µM
CC(=O)NCCCNc1cc(-c2nc(Nc3cccc(Cl)c3)ncc2C)ccn1	< 5 µM
CC(=O)NCCCNc1nccc(-c2ccnc(Nc3cccc([N+](=O)[O-])c3)n2)c1C	< 5 µM
CC(=O)NCC(C)(C)CNc1ncccc1-c1ccnc(Nc2cccc(Cl)c2)n1	< 5 µM
CC(=O)NCCNc1ncccc1-c1ccnc(Nc2cccc(Cl)c2)n1	< 5 µM
COc1ncccc1-c1ccnc(Nc2ccc(N3CCN(C)CC3)cc2)n1	< 5 µM

SMILES	IC50
COc1cnccc1-c1ccnc(Nc2cccc(S(C)(=O)=O)c2)n1	< 5 µM
NS(=O)(=O)c1cccc(Nc2nccc(-c3cccnc3NCCCn3ccnc3)n2)c1	< 5 µM
O=C1CCCN1CCCNc1ncccc1-c1ccnc(Nc2cccc(Cl)c2)n1	< 5 µM
COc1cnccc1-c1ccnc(Nc2cccc(S(N)(=O)=O)c2)n1	< 5 µM
CC(=O)NCCCNc1cc(-c2ccnc(Nc3cccc(Cl)c3)n2)cc(C)n1	< 5 µM
CNCCNc1nccc(-c2ccnc(Nc3cccc(Cl)c3)n2)c1C	< 5 µM
CC(=O)NCCCNc1ncccc1-c1ccnc(Nc2cccc(Cl)c2)n1	< 5 µM
COc1cnccc1-c1ccnc(Nc2cccc(Cl)c2)n1	< 5 µM
COc1ncccc1-c1ccnc(Nc2cccc(C(=O)OC(C)(C)C)c2)n1	< 5 µM
CS(=O)(=O)NCCCNc1ncccc1-c1ccnc(Nc2cccc(Cl)c2)n1	< 5 µM
COc1ncccc1-c1ccnc(Nc2cccc(NC(C)=O)c2)n1	< 5 µM
COCCCNc1ncccc1-c1ccnc(Nc2cccc(Cl)c2)n1	< 5 µM
Cc1c(-c2ccnc(Nc3cccc(Cl)c3)n2)ccnc1NCCCN1CCCC1=O	< 5 µM
COCCCNc1nccc(-c2ccnc(Nc3cccc(Cl)c3)n2)c1C	< 5 µM
COc1ncccc1-c1ccnc(Nc2cccc(C(=O)O)c2)n1	< 5 µM
NCCCCNc1ncccc1-c1ccnc(Nc2cccc(Cl)c2)n1	< 5 µM
CC(C)NCCCNc1ncccc1-c1ccnc(Nc2cccc(Cl)c2)n1	< 5 µM
COc1ncccc1-c1ccnc(Nc2cccc(S(N)(=O)=O)c2)n1	< 5 µM
CS(=O)(=O)c1cccc(Nc2nccc(-c3cccnc3NCCCN)n2)c1	< 5 µM
COc1ncccc1-c1ccnc(Nc2ccc3cn[nH]c3c2)n1	< 5 µM
CC(C)(CN)CNc1ncccc1-c1ccnc(Nc2cccc(Cl)c2)n1	< 5 µM

SMILES	IC50
Clc1cccc(Nc2nccc(-c3cccnc3NCCc3c[nH]cn3)n2)c1	< 5 µM
COc1ncccc1-c1ccnc(Nc2cccc(S(=O)(=O)NCCO)c2)n1	< 5 µM
NCCCNc1ncccc1-c1ccnc(Nc2cccc(Cl)c2)n1	< 5 µM
Cc1c(-c2ccnc(Nc3cccc(Cl)c3)n2)ccnc1NCCCn1ccnc1	< 5 µM
COc1ncccc1-c1ccnc(Nc2cccc(C(N)=O)c2)n1	< 5 µM
CC(=O)NCCCNc1nccc(-c2ccnc(Nc3cccc(Cl)c3)n2)c1C	< 5 µM
NCCCNc1ncccc1-c1ccnc(Nc2cccc(S(N)(=O)=O)c2)n1	< 5 µM
Cc1c(-c2ccnc(Nc3cccc(Cl)c3)n2)ccnc1NCCCN1CCOCC1	< 5 µM
COc1ncccc1-c1ccnc(Nc2cccc(-c3cnco3)c2)n1	< 5 µM
Clc1cccc(Nc2nccc(-c3cccnc3NCCCn3ccnc3)n2)c1	< 5 µM
COc1ncccc1-c1ccnc(Nc2cccc(C#N)c2)n1	< 5 µM
Cc1cnc(Nc2cccc(Cl)c2)nc1-c1cccnc1NCCCN	< 5 µM
CCNC(=O)c1cccc(Nc2nccc(-c3cccnc3OC)n2)c1	< 5 µM
Cc1c(-c2ccnc(Nc3cccc(Cl)c3)n2)ccnc1NCc1ccccc1	< 5 µM
COc1ncccc1-c1ccnc(Nc2cccc(S(C)(=O)=O)c2)n1	< 5 µM
CC(=O)OCCCNc1ncccc1-c1ccnc(Nc2cccc(Cl)c2)n1	< 5 µM
OCCCNc1ncccc1-c1ccnc(Nc2cccc(Cl)c2)n1	< 5 µM
Clc1cccc(Nc2nccc(-c3cccnc3NCCCN3CCOCC3)n2)c1	< 5 µM
COc1ccc(-c2ccnc(Nc3cccc(S(C)(=O)=O)c3)n2)c(OC)n1	< 5 µM
